Results on 124 substances are retold here after paper PMC7932537, “Quantitative profiling of protease specificity” (PLoS Computational Biology, 2021).

For the experiment, the system named is MMP-2. Nature of the experiment: Substrate phage display with NGS: relative probability (RP) of P3-P1' tetramer clusters. Format: biochemical, human. To be noted: for avg_RP: MMP2 - no binning; for relative_probability: tetramer clusters unique to the MMP-2 selectome, MMP-2 RP.
Setting [1] is: average relative probability (RP) of the P3-P1' tetramer, redundant tetramers have been averaged out.
The mark [2] stands for this setting: average relative probability of the P3-P1' tetramer, redundant tetramers have been averaged out.
Where [3] appears, read: average relative probability of the tetramer, redundant tetramers averaged out.
Where [4] appears, read: tetramer probability in MMP2 set / naive library, 200 nM protease, 2 h, 37°C.

For the substance INFL, under setting [1], the avg_RP is 7.787. INML had an avg_RP under setting [2] of 5.8285. Turning to INQL, under setting [1], the avg_RP amounted to 1.5518. With IQSL, the avg_RP under setting [2] turned out to be 25.2682. On to IQTM, for which, under setting [2], the avg_RP stood at 7.1082. Under setting [3], IRFL registered an avg_RP of 12.1004. Under setting [1], IRHL returned an avg_RP of 22.5548. IRML returned an avg_RP under setting [3] of 12.7446. In the case of IRWL, the avg_RP under setting [1] came to 25.5858. The substance IRYL came in with an avg_RP under setting [3] of 17.8741. The same measure, in the same setting: to ISAL belongs 31.8319. With ISFM, the avg_RP under setting [2] turned out to be 23.3965.

Regarding ISHL, the avg_RP under setting [2] was determined as 30.7015. ISNW displayed an avg_RP under setting [3] of 26.0602. ISWM yielded an avg_RP under setting [3] of 28.3587. Substance ISYM had an avg_RP under setting [2] of 22.3091. Regarding IWAL, under setting [1], the avg_RP came out at 5.7953. Regarding IWKL, the avg_RP under setting [2] was found to be 0.0593. Substance IWSL returned an avg_RP under setting [3] of 5.404. Substance IYAL returned an avg_RP under setting [2] of 6.9669.

On to IYEL, for which the avg_RP under setting [2] turned out to be 0.2382.

IYGL displayed an avg_RP under setting [1] of 9.4242. In the case of IYNL, the avg_RP under setting [2] was 11.935.

Regarding LAAI, the avg_RP under setting [3] is 28.8382. As to LAAM [P3-P1' tetramer cluster], the relative_probability was found to be 30.68. Further, the avg_RP under setting [2] is 30.6825. LAAW yielded an avg_RP under setting [3] of 24.7038. LAHI came in with an avg_RP under setting [2] of 25.9365. In turn, LAHV gave an avg_RP under setting [2] of 11.7405. The substance LAKL had an avg_RP under setting [2] of 21.2737. LANI [P3-P1' tetramer cluster] came in with a relative_probability of 29.81. LANL displayed an avg_RP under setting [2] of 34.4823. LANW [P3-P1' tetramer cluster] gave a relative_probability of 29.93. In turn, LAQI came in with an avg_RP under setting [1] of 17.7137.

Turning to LARL, the avg_RP under setting [1] is given as 21.3172. Consider LASL [P3-P1' tetramer cluster], for which the relative_probability is recorded as 31.20. Under setting [2], this substance yielded an avg_RP of 31.1996. Take LASQ: the avg_RP under setting [2] stood at 21.0724. Take LDLL: under setting [2], the avg_RP stood at 0.0715. In the case of LDWM, the avg_RP under setting [2] came out at 7.0331. In turn, LFHL registered an avg_RP under setting [1] of 2.7376.

LGAM [P3-P1' tetramer cluster] displayed a relative_probability of 29.74. On to LGCL, for which the avg_RP under setting [2] turned out to be 12.7261.

Take LGEL [P3-P1' tetramer cluster]: the relative_probability is 29.44. With LGHL [P3-P1' tetramer cluster], the relative_probability was 31.17. For the same substance, the avg_RP under setting [2] is given as 31.1653. Regarding LGML, the avg_RP under setting [2] turned out to be 29.0922.

Consider LGMM, for which the avg_RP under setting [2] came out at 22.231. Consider LGNL, for which the avg_RP under setting [3] worked out at 33.3542. As to LGNM [P3-P1' tetramer cluster], the relative_probability amounted to 29.28.

LGTL: the avg_RP under setting [2] was 24.6198. LGYL yielded an avg_RP under setting [3] of 24.8925. Substance LHSL came in with an avg_RP under setting [2] of 18.7402. Under setting [2], LKHL came in with an avg_RP of 11.1441.

On to LLAM, for which the avg_RP under setting [3] came to 10.8556. Turning to LLDL, under setting [2], the avg_RP came to 0.3542. In turn, LLHL showed an avg_RP under setting [1] of 16.5808.

As to LLNM, the avg_RP under setting [2] is on record as 13.7728. In turn, LLSL came in with an avg_RP under setting [3] of 2.0177. Consider LMAL, for which, under setting [1], the avg_RP is given as 15.4189. In the case of LMGL, the avg_RP under setting [3] is 28.5499. On to LMRL, for which the avg_RP under setting [2] was found to be 0.1149. The same measure, in the same setting: to LNSL belongs 18.3633. For the substance LNST, the avg_RP under setting [3] was found to be 0.4784.

Under setting [2], LNYL displayed an avg_RP of 12.3459. Regarding LQKL, the avg_RP under setting [2] is listed as 13.1993. In the case of LQNL, the avg_RP under setting [2] turned out to be 27.5155.

In the case of LRAM, the avg_RP under setting [3] is 29.407.

For LRHL, the avg_RP under setting [2] is listed as 22.7972. LRML yielded an avg_RP under setting [3] of 9.0498. For LRNI, the avg_RP under setting [2] stood at 19.0698.

In turn, LRNL had an avg_RP under setting [3] of 27.1336. With LRQM, the avg_RP under setting [2] was determined as 8.6765. With LRWW, the avg_RP under setting [2] is listed as 6.3129.

Consider LSHL, for which the avg_RP under setting [2] is 29.8814.

The substance LSNL displayed an avg_RP under setting [2] of 32.5007. In turn, LSRL displayed an avg_RP under setting [2] of 14.3329. As to LSSL, the avg_RP under setting [3] amounted to 24.2822. LTHL yielded an avg_RP under setting [2] of 4.2994.

With LWKL, under setting [2], the avg_RP came out at 0. Under setting [1], LWRI displayed an avg_RP of 0. As for LWSL, the avg_RP under setting [2] came to 8.3838. Regarding LWTL, the avg_RP under setting [2] is recorded as 0.0853. The same measure, in the same setting: to LWYL belongs 0.6796; to LYGL, 17.2472; to LYHL, 4.5289. The substance MAAL gave an avg_RP under setting [3] of 32.6562. Turning to MAHL [P3-P1' tetramer cluster], the relative_probability came to 29.50. The avg_RP under setting [3] turned out to be 29.5006. Regarding MALL, under setting [1], the avg_RP was 16.9256. In turn, MANL [P3-P1' tetramer cluster] showed a relative_probability of 32.42.

MASL [P3-P1' tetramer cluster] displayed a relative_probability of 31.68. Under setting [2], this substance returned an avg_RP of 31.6834.

With MAWL, the avg_RP under setting [3] turned out to be 31.5866. Consider MDLL, for which the avg_RP under setting [2] stood at 0.2864.

With MESL, under setting [3], the avg_RP is given as 8.7752. The substance MFHL registered an avg_RP under setting [2] of 0.052. MFSL: the avg_RP under setting [1] was 0.2905. With MGAL [P3-P1' tetramer cluster], the relative_probability is reported as 31.51. Take MGHL: the avg_RP under setting [3] stood at 26.7019. Consider MGNL [P3-P1' tetramer cluster], for which the relative_probability turned out to be 31.00.

MGRL registered an avg_RP under setting [3] of 18.6873. MGWI [P3-P1' tetramer cluster]: the relative_probability was determined as 29.72. Consider MHEL, for which the avg_RP under setting [1] amounted to 0.0484.

Consider MLAL, for which, under setting [2], the avg_RP stood at 5.6722. As for MLGL, under setting [1], the avg_RP is 16.6463.

Under setting [3], MLHL returned an avg_RP of 8.4169. Take MLHM: the avg_RP under setting [2] is 4.7134. MLSL: the avg_RP under setting [2] worked out at 2.2282. For the substance MLSM, under setting [2], the avg_RP is 5.2342. Substance MMQL registered an avg_RP under setting [2] of 0.816. On the same count and under the same terms, to MMSL belongs 6.1978. MNSL came in with an avg_RP under setting [3] of 18.7113.

MNWL [P3-P1' tetramer cluster] had a relative_probability of 30.10. In the case of MQNL, the avg_RP under setting [1] was 23.8708.

On to MQRL, for which the avg_RP under setting [1] is 9.3428. MRHL displayed an avg_RP under setting [2] of 14.413. Turning to MSHL, the avg_RP under setting [3] is listed as 24.6165. MSNL [P3-P1' tetramer cluster]: the relative_probability is listed as 30.28. Under setting [2], MSSL yielded an avg_RP of 27.4466. As for MSWM [P3-P1' tetramer cluster], the relative_probability came to 29.68. In turn, MSYL returned an avg_RP under setting [3] of 18.2293. MWHL had an avg_RP under setting [2] of 0.2013. On to NARL, for which the avg_RP under setting [1] is recorded as 12.6743. Regarding NLAL, the avg_RP under setting [1] turned out to be 5.8865. Regarding NLPL, the avg_RP under setting [1] is recorded as 4.8994. In turn, PAAL [P3-P1' tetramer cluster] had an avg_RP under setting [3] of 35.8015. Moreover, the “relative probability (RP)” value reads like this: under setting [4], 35.8015; (tetramer projected onto MMP-2 cleavage sites determined by Prudova et al. (2010)) 35.8. Under setting [2], PAGL [P3-P1' tetramer cluster] gave an avg_RP of 36.0156. Further, the “relative probability (RP)” value under setting [4] came to 36.0156. In the case of PAHL, the avg_RP under setting [1] stood at 34.5554.
